Test results as given in patent US20060198914A1, “Use of rutin and isoharmnetin for treating depressive states and depression and other emotion disorders” (Bioplanta Arzneimittel GmbH, priority 2003, published 2006).

System: rats
Test: forced swimming test in rats
Format: in vivo
Description: The antidepressive efficacy was examined by means of the so-called “forced swimming test” in rats. In performing this test rats are brought into an impasse situation (glass cylinder filled with water) over a specified period of 5 minutes. In this test the rats react with a rigor referred to as an immobilization period which is interpreted as a correlative to a depression. If the rats are treated with medicaments having an antidepressive efficacy before carrying out the test, the immobilization period is decreased. Since other psychotropic drugs such as anxiolytics or neuroleptics are not effective in this test, this test system is well suitable for detecting antidepressive effects (Porsolt et al. 1978; Porsolt, 1991). In this test all hitherto known antidepressives have to be administered over a period of several days in order to be effective (similar to the administration to patients). The test animals were treated either with the test substance or for control purposes with the solvent only or with the tricyclic antidepressive imipramine for a comparison of the efficacy.
The following tables exemplarily show the efficacy of rutin, isorhamnetin and plant extracts containing isorhamnetin derivatives or rutin in sufficient amounts. In each table the inhibition of the immobility is expressed in terms of % inhibition against the control group for comparison purposes.

## CN(C)CCCN1c2ccccc2CCc2ccccc21 [Imipramine, imipramine, reference compound]
Table 1, dose 30 mg/kg
  Inhibition of immobility [% of the control]: 46 % of the control
Table 2, dose 3 mg/kg
  Inhibition of immobility [% of the control]: 3 % of the control
Table 2, dose 10 mg/kg
  Inhibition of immobility [% of the control]: 24 % of the control
Table 3, dose 20 mg/kg
  Inhibition [% of the control]: 43 % of the control
Table 4, dose 20 mg/kg
  Inhibition [% of the control]: 43 % of the control
Table 5, dose 30 mg/kg
  Inhibition [% of the control]: 64 % of the control

## COc1cc(-c2oc3cc(O)cc(O)c3c(=O)c2O)ccc1O [Isorhamnetin, 3,5,7-trihydroxy-2-(4-hydroxy-3-methoxyphenyl)-4H-1-benzopyran-4-one]
Table 2, dose 3 mg/kg
  Inhibition of immobility [% of the control]: 17 % of the control
Table 2, dose 10 mg/kg
  Inhibition of immobility [% of the control]: 56 % of the control

## C[C@@H]1O[C@@H](OC[C@H]2O[C@@H](Oc3c(-c4ccc(O)c(O)c4)oc4cc(O)cc(O)c4c3=O)[C@H](O)[C@@H](O)[C@@H]2O)[C@H](O)[C@H](O)[C@H]1O [Rutin, 3-[[6-O-(6-deoxy-α-L-mannopyranosyl)-β-D-glucopyranosyl]oxy]-2-(3,4-dihydroxyphenyl)-5,7-dihydroxy-4H-1-benzopyran-4-one]
Table 1, dose 3 mg/kg
  Inhibition of immobility [% of the control]: 8 % of the control
Table 1, dose 6 mg/kg
  Inhibition of immobility [% of the control]: 41 % of the control
Table 1, dose 12 mg/kg
  Inhibition of immobility [% of the control]: 42 % of the control
Table 1, dose 24 mg/kg
  Inhibition of immobility [% of the control]: 49 % of the control
Table 1, dose 48 mg/kg
  Inhibition of immobility [% of the control]: 74 % of the control
